Earlier results on three molecules are cited in patent US20250064725A1, “OPHTHALMIC PREPARATION OF TYROSINE KINASE INHIBITOR, AND PREPARATION METHOD THEREFOR AND USE THEREOF” (CHENGDU RUIMU BIOPHARMACEUTICALS CO., LTD., priority 2021, published 2025).

Data set [1] concerns age-related macular degeneration. Conditions: oral tablets 50, 100, 200 mg/day.
For data set [2] the following is noted: oral administration of tablets.

`Cc1[nH]c(/C=C2\C(=O)Nc3ccc(F)cc32)c(C)c1C(=O)N[C@H]1CCN(C(=O)N(C)C)C1` [Example X-82]: the “Toxicity outcome of the clinical trial” value in data set [1] is given as “suspended due to its toxicity”. Moreover, the Visual improvement entry in data set [1] (after 6 months) is given as “non-inferior”.
With `CNC(=O)c1ccccc1Sc1ccc2c(/C=C/c3ccccn3)n[nH]c2c1` [axitinib], in data set [2], the “Incidence rate of diarrhea” value is given as 55%, the “Incidence rate of fatigue” value is given as 39%, the “Incidence rate of hypertension” value is 40% and the “Incidence rate of loss of appetite” value is on record as 34%. Besides, the “Incidence rate of nausea” value in data set [2] is 32%.
With `CNC(=O)c1cc(Oc2ccc(NC(=O)Nc3ccc(Cl)c(C(F)(F)F)c3)cc2)ccn1` [sorafenib], in data set [2], the “Incidence rate of diarrhea” value was 53%, the “Incidence rate of fatigue” value is 32%, the “Incidence rate of hypertension” value is recorded as 29% and the “Incidence rate of loss of appetite” value is reported as 29%. For the same molecule, the “Incidence rate of nausea” value in data set [2] is on record as 22%.
